Reference: US11873295B2, “Allosteric chromenone inhibitors of phosphoinositide 3-kinase (PI3K) for the treatment of disease” (Petra Pharma Corporation, priority 2021, dated 2024)
pIC50: −log10 of the molar value.

Key:
[1] = molecular target: T1, human full length PIK3KA Wild-type (p110α/p85α complex) (Homo sapiens, UniProt P42336); experiment: PI3K-alpha kinase (PIK3CA) biochemical activity, wild-type, ADP-Glo; details: PI3K-α (PIK3CA) biochemical, Soy PI lipid substrate
T1 construct: Recombinant, catalytically active human full length PIK3KA Wild-type and H1047R mutant were purchased as 1:1 complex; 6xHis (N); purchased EMD Millipore Sigma 14-602M
In short: (§1)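 Full-length His-p110α/p85α complex, wild-type or H1047R, 1–5 nM, preincubated with compound 1 h at 27 °C in HEPES pH 7.4, 25 mM MgCl2, 0.01% Triton X-100, 1% DMSO. Reaction with 20 μM ATP and 50 μM PIP2diC8 or soy PI at 27 °C to ~10% ATP conversion; ADP-Glo luminescence. IC50 from 10-point four-parameter logistic fit.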

[2] = molecular target: T2, human full length PIK3KA H1047R mutant (p110α/p85α complex) (Homo sapiens, UniProt P42336, H1047R); experiment: PI3K-alpha kinase (PIK3CA) biochemical activity, H1047R mutant, ADP-Glo; details: PI3K-α (PIK3CA) biochemical, H1047R mutant, Soy PI lipid substrate
T2 construct: Recombinant, catalytically active human full length PIK3KA Wild-type and H1047R mutant were purchased as 1:1 complex; 6xHis (N); purchased EMD Millipore Sigma 14-792M
In short: as §1

[3] = tested on: PI3K-α (PIK3CA) in MDA-MB-453 cells; experiment: PI3K-alpha kinase (PIK3CA) activity in vitro cell based assay, MDA-MB-453 cells, AlphaLisa SureFire; details: 0% FBS, 3 hours treatment, relative IC50
Protocol: PI3K-Alpha Kinase (PIK3CA) Activity In Vitro Cell Based Assay and Determining IC50 Values for Inhibitors
The MDA-MB-453 (ATCC-HTB-131) cell line was obtained from the American Type Culture Collection (Manassas, VA). Cells were maintained in Dulbecco's Modified Eagle Media (DMEM, Gibco 11965-092) supplemented with 10% Fetal Bovine Serum, heat inactivated (FBS HI, Gibco 10082-147), 1× non-essential amino acids (NEAA, Gibco 11140-050), and 1 mM sodium pyruvate (Gibco 11360-070). Cultures were maintained in a humidified incubator at 37° C. under 5% CO2/95% air.
For compound testing in 0% FBS, MDA-MB-453 cells were seeded at a density of 1.5×10^4 cells per well in white 384-well plates in 20 μl of Minimum Essential Media (MEM) assay media with 1×NEAA, 1 mM sodium pyruvate, and 1 μg/mL human insulin (Sigma I9278). Compounds dissolved in 10 mM stock solutions in DMSO were serially diluted 1:3 in DMSO to generate a 10-point dilution series and plated using an acoustic liquid handler system (Echo 550 Series Liquid Handler, Labcyte). A 5× intermediate compound dilution plate in MEM with 1×NEAA and 1 mM sodium pyruvate (150 μM starting compound concentration in 1.5% DMSO) was then prepared. Five μl of the intermediate serially diluted compounds were added to the cell plate to final concentrations ranging from […] in 0.3% DMSO. 0.3% DMSO alone was used to establish the maximum (MAX) signal and GDC-0032 at a final concentration of 1 μM was used as a reference compound for the minimum (MIN) signal. After 3 hours treatment, the medium was removed, and the cells lysed in 10 μL of 1× SureFire Lysis buffer with shaking for 10 minutes at room temperature. The Acceptor Mix (Reaction Buffer 1+Reaction Buffer 2+Activation Buffer+SureFire Ultra Acceptor Beads) was prepared by diluting Activation buffer 25-fold in combined Reaction Buffer 1 and Reaction Buffer 2. The Acceptor beads were diluted 50-fold in the combined Reaction Buffers. Five μL of Acceptor Mix was added to each well, the plate was sealed and covered with foil and incubated for 1 hour at room temperature. The Donor Mix (dilution buffer+SureFire Ultra Donor Beads) was prepared by diluting Donor Beads 50-fold in dilution buffer. Five μL of the Donor Mix was added to each well and the plate sealed and covered with foil and incubated for 1 hour at room temperature in the dark. The plates were read on a Neo2 plate reader instrument from Biotek using standard AlphaLisa settings. Compounds were tested in duplicate and the average % inhibition at each compound concentration was used to generate a single dose response curve. The data were processed using the Genedata-Screener tool. Relative IC50 values were determined using luminescence units by calculating percent inhibition with respect to the in-plate “MIN” (GDC-0032 reference control) and “MAX” (DMSO) controls. The data was analyzed using a 4-parameter nonlinear logistic equation (four-parameter logistic concentration-response curve): Y=bottom+[(top−bottom)/1+(X/IC50)slope] where Y=% inhibition, X=concentration of inhibitor, bottom=minimum value of y attained by curve-fit, top=maximum value of y attained by curve-fit and slope=steepness of curve at the IC50. % Inhibition=[(signal at X−median Min)/(median Max−median Min)]×100 IC50: concentration of compound that reduces a given response (ligand binding, enzyme response) by 50%. Relative IC50: concentration giving half the compound's maximum response.
For IC50 values shown in Table B, “A” means IC50<50 nM; “B” means IC50 ranging between 50 nM and 100 nM; “C” means IC50 ranging between 100 nM and 500 nM; “D” means IC50>500 nM.

T2 sequence (P42336 whole entry H1047R): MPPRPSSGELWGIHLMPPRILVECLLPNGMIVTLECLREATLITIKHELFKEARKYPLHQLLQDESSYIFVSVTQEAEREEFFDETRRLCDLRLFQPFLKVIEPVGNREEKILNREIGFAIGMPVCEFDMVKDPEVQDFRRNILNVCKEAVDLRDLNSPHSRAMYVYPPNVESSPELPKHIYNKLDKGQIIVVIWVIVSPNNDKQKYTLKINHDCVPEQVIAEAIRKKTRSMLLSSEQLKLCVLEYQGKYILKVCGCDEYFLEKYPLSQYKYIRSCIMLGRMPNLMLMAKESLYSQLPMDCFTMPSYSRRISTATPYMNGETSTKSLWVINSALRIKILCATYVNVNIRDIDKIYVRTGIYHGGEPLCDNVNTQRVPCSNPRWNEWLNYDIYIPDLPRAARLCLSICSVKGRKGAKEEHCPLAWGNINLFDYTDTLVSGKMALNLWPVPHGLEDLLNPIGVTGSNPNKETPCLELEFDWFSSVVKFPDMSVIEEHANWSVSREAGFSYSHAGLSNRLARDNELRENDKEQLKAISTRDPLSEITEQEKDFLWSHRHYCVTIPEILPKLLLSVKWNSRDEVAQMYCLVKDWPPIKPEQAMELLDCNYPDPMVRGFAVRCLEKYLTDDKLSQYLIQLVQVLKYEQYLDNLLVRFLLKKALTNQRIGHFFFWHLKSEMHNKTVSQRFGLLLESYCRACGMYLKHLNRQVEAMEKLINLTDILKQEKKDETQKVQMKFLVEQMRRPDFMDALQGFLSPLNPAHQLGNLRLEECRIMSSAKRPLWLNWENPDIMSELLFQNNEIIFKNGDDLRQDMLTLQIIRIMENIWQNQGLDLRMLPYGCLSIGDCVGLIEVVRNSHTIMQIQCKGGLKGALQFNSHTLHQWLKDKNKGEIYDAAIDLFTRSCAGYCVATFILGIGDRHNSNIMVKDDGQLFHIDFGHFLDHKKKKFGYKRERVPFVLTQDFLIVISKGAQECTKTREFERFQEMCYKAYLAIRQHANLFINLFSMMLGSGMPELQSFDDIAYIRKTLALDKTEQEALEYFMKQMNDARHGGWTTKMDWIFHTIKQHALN
T2 sequence (P27986 whole entry partner): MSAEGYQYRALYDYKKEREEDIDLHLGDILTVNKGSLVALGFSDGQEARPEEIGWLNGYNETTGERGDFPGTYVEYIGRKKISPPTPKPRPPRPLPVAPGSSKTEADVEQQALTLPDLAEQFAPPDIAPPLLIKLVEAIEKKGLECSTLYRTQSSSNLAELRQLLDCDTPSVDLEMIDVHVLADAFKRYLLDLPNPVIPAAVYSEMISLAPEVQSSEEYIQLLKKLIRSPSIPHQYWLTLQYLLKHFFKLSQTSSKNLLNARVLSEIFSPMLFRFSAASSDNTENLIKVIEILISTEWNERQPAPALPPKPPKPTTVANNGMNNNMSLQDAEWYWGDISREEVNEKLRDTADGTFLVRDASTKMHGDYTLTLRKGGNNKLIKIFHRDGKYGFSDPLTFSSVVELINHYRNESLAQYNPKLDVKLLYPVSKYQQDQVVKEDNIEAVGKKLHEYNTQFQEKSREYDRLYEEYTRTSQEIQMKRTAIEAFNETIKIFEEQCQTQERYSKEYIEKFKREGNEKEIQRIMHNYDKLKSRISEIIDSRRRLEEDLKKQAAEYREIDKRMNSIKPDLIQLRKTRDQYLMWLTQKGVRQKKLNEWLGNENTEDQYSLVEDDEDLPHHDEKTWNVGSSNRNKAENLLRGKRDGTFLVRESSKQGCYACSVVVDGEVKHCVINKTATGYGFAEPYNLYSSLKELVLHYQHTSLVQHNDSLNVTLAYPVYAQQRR

| pIC50 [1] | pIC50 [2] | pIC50 ([3]; Homo sapiens, MDA-MB-453, 3 h) | pIC50 [3] | Compound |
| --- | --- | --- | --- | --- |
| > 6.30 | > 6.30 | > 7.30 |  | Cc1cc(C(C)Nc2ccccc2C(=O)O)c2oc(-c3ccccc3)c(C#N)c(=O)c2c1 (single isomer, unassigned; isomer 2) [Example 62, 2-[1-(3-Cyano-6-methyl-4-oxo-2-phenyl-chromen-8-yl)ethylamino]benzoic acid, Isomer 2] |
| < 5.00 | 6.00 to 6.30 | 6.30 to 7.00 |  | Cc1cc(C(C)Nc2cccc(F)c2C(=O)O)c2oc(-c3ccccc3F)c(C)c(=O)c2c1 (single isomer, unassigned; isomer 2) [Example 104, 2-Fluoro-6-[1-[2-(2-fluorophenyl)-3,6-dimethyl-4-oxo-chromen-8-yl]ethylamino]benzoic acid, Isomer 2] |
| 5.30 to 6.00 | 5.30 to 6.00 |  | < 6.30 | Cc1cc(C(C)Nc2cccc(F)c2C(=O)O)c2oc(-c3cccc(F)c3)c(C)c(=O)c2c1 (single isomer, unassigned; isomer 2) [Example 106, 2-Fluoro-6-[1-[2-(3-fluorophenyl)-3,6-dimethyl-4-oxo-chromen-8-yl]ethylamino]benzoic acid, Isomer 2] |
| < 5.00 | 5.00 to 5.30 | < 6.30 |  | Cc1cc(C(C)Nc2cccc(F)c2C(=O)O)c2oc(-c3ccccc3F)cc(=O)c2c1 (single isomer, unassigned; isomer 2) [Example 108, 2-Fluoro-6-[1-[2-(2-fluorophenyl)-6-methyl-4-oxo-chromen-8-yl]ethylamino]benzoic acid, Isomer 2] |
| 5.30 to 6.00 | 5.30 to 6.00 |  | < 6.30 | COc1ccc(NC(C)c2cc(C)cc3c(=O)c(C)c(-c4ccccc4)oc23)c(C(=O)O)n1 (single isomer, unassigned; isomer 2) [Example 110, 3-[1-(3,6-Dimethyl-4-oxo-2-phenyl-chromen-8-yl)ethylamino]-6-methoxy-pyridine-2-carboxylic acid, Isomer 2] |
| 5.30 to 6.00 | > 6.30 |  | 7.00 to 7.30 | Cc1cc(C(C)Nc2ccccc2C(=O)O)c2oc(-c3ccccc3)c(F)c(=O)c2c1 (single isomer, unassigned; isomer 2) [Example 133, 2-[1-(3-Fluoro-6-methyl-4-oxo-2-phenyl-chromen-8-yl)ethylamino]benzoic acid, Isomer 2] |
| 5.30 to 6.00 | > 6.30 |  | > 7.30 | Cc1cc([C@@H](C)Nc2ccc(C#N)cc2C(=O)O)c2oc(-c3ccccc3)c(C)c(=O)c2c1 (single isomer, unassigned; isomer 2) [Example 158] |
| 5.30 to 6.00 | > 6.30 |  | 6.30 to 7.00 | Cc1cc([C@@H](C)Nc2ccc(C#N)nc2C(=O)O)c2oc(-c3ccccc3)c(C)c(=O)c2c1 (single isomer, unassigned; isomer 2) [Example 160] |
| 6.00 to 6.30 | > 6.30 | > 7.30 |  | Cc1cc([C@@H](C)Nc2ccc(Cl)nc2C(=O)O)c2oc(-c3ccccc3)c(C)c(=O)c2c1 [Example 1, 6-Chloro-3-[[(1R)-1-(3,6-dimethyl-4-oxo-2-phenyl-chromen-8-yl)ethyl]amino]pyridine-2-carboxylic acid] |
| < 5.00 | > 6.30 | > 7.30 |  | Cc1cc([C@@H](C)Nc2ccccc2C(=O)O)c2oc(-c3ccccc3C)cc(=O)c2c1 [Example 14, 2-[[(1R)-1-[6-Methyl-2-(o-tolyl)-4-oxo-chromen-8-yl]ethyl]amino]benzoic acid] |
| 5.00 to 5.30 | > 6.30 | > 7.30 |  | Cc1cc([C@@H](C)Nc2ccccc2C(=O)O)c2oc(-c3ccccc3C#N)cc(=O)c2c1 [Example 15, 2-[[(1R)-1-[2-(2-Cyanophenyl)-6-methyl-4-oxo-chromen-8-yl]ethyl]amino]benzoic acid] |
| 5.30 to 6.00 | > 6.30 | > 7.30 |  | Cc1cc([C@@H](C)Nc2ccccc2C(=O)O)c2oc(-c3ccccc3)c(C)c(=O)c2c1 [Example 21, 2-[[(1R)-1-(3,6-Dimethyl-4-oxo-2-phenyl-chromen-8-yl)ethyl]amino]benzoic acid] |
| 5.30 to 6.00 | > 6.30 | 7.00 to 7.30 |  | Cc1cc([C@@H](C)Nc2ccccc2C(=O)O)c2oc(-c3ccc(C(C)(C)C#N)cc3)cc(=O)c2c1 [Example 25] |
| 6.00 to 6.30 | > 6.30 | 7.00 to 7.30 |  | Cc1cc([C@@H](C)Nc2ccc(C(F)(F)F)nc2C(=O)O)c2oc(-c3ccccc3)c(C)c(=O)c2c1 [Example 26, 3-[[(1R)-1-(3,6-Dimethyl-4-oxo-2-phenyl-chromen-8-yl)ethyl]amino]-6-(trifluoromethyl)-pyridine-2-carboxylic acid] |
| 5.30 to 6.00 | > 6.30 | > 7.30 |  | Cc1cc([C@@H](C)Nc2ccccc2C(=O)O)c2oc(-c3cccc(F)c3)c(C)c(=O)c2c1 [Example 28, 2-[[(1R)-1-[2-(3-Fluorophenyl)-3,6-dimethyl-4-oxo-chromen-8-yl]ethyl]amino]benzoic acid] |
| 6.00 to 6.30 | > 6.30 | > 7.30 |  | Cc1cc([C@@H](C)Nc2ccccc2C(=O)O)c2oc(-c3ccc(F)cc3)c(C)c(=O)c2c1 [Example 29, 2-[[(1R)-1-[2-(4-Fluorophenyl)-3,6-dimethyl-4-oxo-chromen-8-yl]ethyl]amino]benzoic acid] |
| 6.00 to 6.30 | > 6.30 | > 7.30 |  | Cc1cc([C@@H](C)Nc2ccccc2C(=O)O)c2oc(-c3cccc(C#N)c3)c(C)c(=O)c2c1 [Example 30, 2-[[(1R)-1-[2-(3-Cyanophenyl)-3,6-dimethyl-4-oxo-chromen-8-yl]ethyl]amino]benzoic acid] |
| 5.30 to 6.00 | > 6.30 | > 7.30 |  | Cc1cc([C@@H](C)Nc2ccccc2C(=O)O)c2oc(-c3ccc(C#N)cc3)c(C)c(=O)c2c1 [Example 31, 2-[[(1R)-1-[2-(4-Cyanophenyl)-3,6-dimethyl-4-oxo-chromen-8-yl]ethyl]amino]benzoic acid] |
| 5.00 to 5.30 | > 6.30 | > 7.30 |  | Cc1cc([C@@H](C)Nc2ccccc2C(=O)O)c2oc(-c3ccc(-c4ncco4)cc3)cc(=O)c2c1 [Example 32, 2-[[(1R)-1-[6-Methyl-2-(4-oxazol-2-ylphenyl)-4-oxo-chromen-8-yl]ethyl]amino]benzoic acid] |
| 5.00 to 5.30 | > 6.30 | 6.30 to 7.00 |  | Cc1cc([C@@H](C)Nc2ccc(C(F)(F)F)cc2C(=O)O)c2oc(-c3ccccc3)cc(=O)c2c1 [Example 33, 2-[[(1R)-1-(6-Methyl-4-oxo-2-phenyl-chromen-8-yl)ethyl]amino]-5-(trifluoromethyl)benzoic acid] |
